Laboratory results taken from PMC9321952 (Molecular Ecology, 2022).

Legend:
Assay in all cases: Fluo-4 calcium fluorescence assay, HEK293 cells
Conditions in all cases: agonist; co-expressed with ItypOrco; room temperature
HabiOR4^HsCO = format: cell-based, Hylobius abietis
HabiOR3 = format: cell-based, Hylobius abietis
DponOR8^HsCO = format: cell-based, Dendroctonus ponderosae
ItypOR6 = format: cell-based, Ips typographus

EC50 (HabiOR4^HsCO) | EC50 (HabiOR3) | EC50 (DponOR8^HsCO) | EC50 (ItypOR6) | SMILES
7.34 µM |  |  |  | CCC/C=C\CO [Z2-hexenol]
3.88 µM |  |  |  | CCC/C=C/CO [E2-hexenol]

Second part, the molecule before the results:

SMILES | EC50 (HabiOR4^HsCO) | EC50 (HabiOR3) | EC50 (DponOR8^HsCO) | EC50 (ItypOR6)
OCCc1ccccc1 [2-phenylethanol] |  | 8.54 µM | 5.12 µM | 3.45 µM
CCCCCCO [1-hexanol] | 2.85 µM |  |  | 
CC/C=C\CCO [Z3-hexenol] | 7.99 µM |  |  | 
